Patent US5157052A, “Method for inhibiting IgE production” (priority 1990, dated 1992)

Key:
Assay type in all cases: in vivo, mouse (Balb/c female)
[1] = system: MHC Class I; assay: Splenocyte cell surface density/distribution (FACS): MHC Class I
Protocol: (§1) One group of 4 unstimulated Balb/c female mice is injected with PBS (Group A). Another (Group B) is injected with 20 μg (±) methyl 11α,16-dihydroxy-16-methyl-9-oxoprosta-5Z,13E-dien-1-oate as in Example 13. […] A 3 cm incision is made with a scalpel above the left hip, and the spleen is cut free from adjoining tissue and placed in a 100 mn plastic culture dish containing 10 ml PBS. The splenic cells are then made into a suspension, by rubbing the spleens between the rough, frosted ends of microscope slides repeatedly until the only remaining particulate matter is connective tissue. Cells are transferred to a 15 ml conical polystyrene tube and centrifuged in a centrifuge at 1200 rpm for 5 minutes. The supernatant is discarded by aspiration and the cell pellet is resuspended in 10 ml PBS, then centrifuged at 1200 rpm for 5 minutes. The supernatant is aspirated and the cell pellet is resuspended in 15 mM Tris, 140 mM Ammonium Chloride, to lyse red blood cells. After incubating at room temperature for 10 minutes the cell suspension is centrifuged at 1200 rpm for 10 minutes. The supernatant is discarded and the cell pellet is resuspended in 10 ml FACS Buffer (PBS containing 0.1% BSA and 0.1% Sodium Azide). The cell suspension is filtered through sterile glass wool plugged in the top of a pasteur pipet. Cells in the flow through are counted using a hemacytometer, then the cell suspension is centrifuged at 1200 rpm for 5 minutes. The supernatant is discarded and the cell pellet is resuspended in a volume of FACS Buffer that will yield 4×10^7 cells/ml. 10 μl (4×10^5 cells) is added to each well of a 96-well V-bottom plate. 25 μl of diluted monoclonal antibody directed against splenocyte cell surface proteins is added to each well: Major Histocompatability Complex (MHC) Class II (M5114, ATCC, Rockville Md.), MHC Class I (M1/42, ATCC), Anti-IgD (JA12.5, ATCC, Rockville, Md.), Thymocyte (Thy)-1 (JIJ, ATCC), B220 (14.8, ATCC), Kappa light chain (187, ATCC), IL-2 Receptor (7D4, ATCC), Lyt-1 (7.313, ATCC) and CD23 (biotinylated B3B4) and incubated on ice for 30 minutes. 100 μl 10% BSA 0.1% sodium azide is added to each well, then the plates are centrifuged at 1200 rpm for 10 minutes. The liquid is removed by aspiration and the cell pellets are resuspended in 100 μl FACS Buffer, and centrifuged at 1200 rpm for 5 minutes. […] Samples are transferred to individual tubes and 10,000 cells are analyzed. Using the Lysis software (Becton Dickinson, Mountain View, Calif.) the mean channel log fluorescence and percent positive cells are determined for the entire cell population. […]

[2] = system: IgD; assay: Splenocyte cell surface density/distribution (FACS): IgD
Protocol: as §1

[3] = system: CD23; assay: Splenocyte cell surface density/distribution (FACS): CD23
Protocol: as §1

## CCCCC(C)(O)C/C=C/[C@H]1[C@H](O)CC(=O)[C@@H]1C/C=C\CCCC(=O)OC (mixture of isomers) [(±) methyl 11α,16-dihydroxy-16-methyl-9-oxoprosta-5Z,13E-dien-1-oate]
[1]; anti-IgD stimulated mice, 20 μg days 3 and 4, day 7 (PBS 48.5)
  Percentage Positive Cells: 59.4 ± 5.4%
[1]; anti-IgD stimulated mice, 20 μg days 3 and 4, day 7 (PBS 113)
  Mean Channel Log Fluorescence: 121 ± 15
[1]; unstimulated mice, 20 μg (PBS 57.8)
  Percentage Positive Cells: 79 ± 16%
[1]; unstimulated mice, 20 μg (PBS 112)
  Mean Channel Log Fluorescence: 113 ± 2
[2]; anti-IgD stimulated mice, 20 μg days 3 and 4, day 7 (PBS 21.9)
  Percentage Positive Cells: 15.6 ± 8.4%
[2]; anti-IgD stimulated mice, 20 μg days 3 and 4, day 7 (PBS 107)
  Mean Channel Log Fluorescence: 98 ± 0.5
[2]; unstimulated mice, 20 μg (PBS 130)
  Mean Channel Log Fluorescence: 132 ± 3.5
[2]; unstimulated mice, 20 μg (PBS printed 1.4)
  Percentage Positive Cells: 51.8 ± 3.7%
[3]; anti-IgD stimulated mice, 20 μg days 3 and 4, day 7 (PBS 20.4)
  Percentage Positive Cells: 11.6 ± 1.6%
[3]; anti-IgD stimulated mice, 20 μg days 3 and 4, day 7 (PBS 99)
  Mean Channel Log Fluorescence: 95 ± 1.5
[3]; unstimulated mice, 20 μg (PBS 46.6)
  Percentage Positive Cells: 44.2 ± 6.6%
[3]; unstimulated mice, 20 μg (PBS 95)
  Mean Channel Log Fluorescence: 94 ± 3.2
